{
  "source": "patent US20080318993A1",
  "about": "(Endo Pharmaceuticals, Inc., priority 2007, published 2008)",
  "key": {"[1]": {"conditions": "orally administered (oral solution), hydrochloride, cited from earlier work"}, "[2]": {"experiment": "Example 5: plasma pharmacokinetics of EN3202 20 mg in hepatic impairment vs healthy controls", "conditions": "for AUC / AUC(0-t) / Cmax / Tmax / half-life: human, plasma, oral, 20 mg; for AUC(0-t): AUCT; for Tmax: median (range); for increase in average AUC relative to controls: arithmetic means; for AUC increase relative to healthy controls / Cmax increase relative to healthy controls: log-transformed comparison", "description": "(§1) While in the clinic, the subjects were to refrain from strenuous physical activity.\nAll study medications were supplied by the sponsor. […] A single 20 mg dose EN3202 was administered following an overnight fast (from approximately 22:00 on the evening prior to dose administration) at approximately 08:00, and participants were not allowed to eat until at least four hours after the dose.\nAll doses were administered with 240 mL of ambient water. Participants were instructed to drink all of the water.\nPharmacokinetic parameters were calculated using model-independent methods.\nAll pharmacokinetic results are summarized using appropriate descriptive statistics. […] One-way ANOVA was conducted using the model PKVAR=group, where group was mild hepatic impairment, moderate-severe hepatic impairment, or healthy control. Point estimates of the impaired versus control group differences and the corresponding 90% confidence limits were constructed."}, "[3]": {"conditions": "10 mg oral dose, cited from earlier work"}, "[4]": {"experiment": "Example 5: urinary excretion of oxymorphone and metabolites in hepatic impairment vs healthy controls", "conditions": "for mean amount excreted in the urine: percent of administered dose, through 120 hours", "excerpt": "as §1"}, "[5]": {"conditions": "Moderate-Severe Impairment, mean (SD)"}, "[6]": {"conditions": "Subject 006 (Child-Pugh Class B)"}, "[7]": {"conditions": "Subject 007 (Child-Pugh Class A)"}, "[8]": {"conditions": "Subject 009 (Child-Pugh Class B)"}, "[9]": {"conditions": "Subject 010 (Child-Pugh Class B)"}, "[10]": {"conditions": "Subject 011 (Child-Pugh Class C)"}, "[11]": {"conditions": "moderate-severe hepatic impairment"}},
  "note": "Values joined by “and” are separate entries in the source; they are usually repeats but may differ in a detail not shown here. Identical values can stand only once. Like-named read-outs stand apart in the source and are kept apart here.",
  "data": [
    {"smiles": "CN1CC[C@]23c4c5ccc(O)c4O[C@H]2C(=O)CC[C@@]3(O)[C@H]1C5.Cl", "note": "[Oxymorphone, 14-hydroxydihydromorphinone hydrochloride]", "values": [
      {"measurement": "oral / average absolute bioavailability", "setting": "[1]", "value": "about 10%"},
      {"measurement": "oral / average absolute bioavailability", "setting": "[1]; listed as oxymorphone", "value": "approximately 10%"},
      {"measurement": "λz", "setting": "[2]; Healthy Controls, mean (SD)", "value": "0.0970 (0.0540) hr^−1"},
      {"measurement": "CL/F", "setting": "[2]; Healthy Controls, mean (SD), hydrochloride", "value": "21.15 (13.54) L/min"},
      {"measurement": "CL/F", "setting": "[2]; Healthy Controls, mean (SD), listed as oxymorphone, hydrochloride", "value": 21.15, "unit": "L/min"},
      {"measurement": "CL/F", "setting": "[2]; Mild Impairment, mean (SD)", "value": "13.30 (5.81) L/min"},
      {"measurement": "λz", "setting": "[2]; Mild Impairment, mean (SD)", "value": "0.0830 (0.0392) hr^−1"},
      {"measurement": "CL/F", "setting": "[2]; [5]", "value": "7.17 (5.08) L/min"},
      {"measurement": "λz", "setting": "[2]; [5]", "value": "0.0970 (0.0365) hr^−1"},
      {"measurement": "CL/F", "setting": "[2]; [6]", "value": 7.34, "unit": "L/min"},
      {"measurement": "CL/F", "setting": "[2]; [7]", "value": 4.45, "unit": "L/min"},
      {"measurement": "CL/F", "setting": "[2]; [8]", "value": 1.38, "unit": "L/min"},
      {"measurement": "CL/F", "setting": "[2]; [9]", "value": 7.63, "unit": "L/min"},
      {"measurement": "CL/F", "setting": "[2]; [10]", "value": 1.33, "unit": "L/min"},
      {"measurement": "AUC", "setting": "[2]; AUC, Healthy Controls, mean (SD), single 20 mg EN3202, fasting", "value": 20.6, "unit": "ng·h/mL"},
      {"measurement": "AUC", "setting": "[2]; AUC, Mild Impairment, mean (SD), single 20 mg EN3202, fasting", "value": 32.1, "unit": "ng·h/mL"},
      {"measurement": "AUC", "setting": "[2]; AUC, Moderate-Severe Impairment, mean (SD), single 20 mg EN3202, fasting", "value": 106, "unit": "ng·h/mL"},
      {"measurement": "AUC", "setting": "[2]; AUC, Subject 006 (Child-Pugh Class B)", "value": 45.4, "unit": "ng·h/mL"},
      {"measurement": "AUC", "setting": "[2]; AUC, Subject 007 (Child-Pugh Class A)", "value": 74.8, "unit": "ng·h/mL"},
      {"measurement": "AUC", "setting": "[2]; AUC, Subject 009 (Child-Pugh Class B)", "value": 241, "unit": "ng·h/mL"},
      {"measurement": "AUC", "setting": "[2]; AUC, Subject 010 (Child-Pugh Class B)", "value": 43.7, "unit": "ng·h/mL"},
      {"measurement": "AUC", "setting": "[2]; AUC, Subject 011 (Child-Pugh Class C)", "value": 250, "unit": "ng·h/mL"},
      {"measurement": "AUC(0-t)", "setting": "[2]; Healthy Controls, mean (SD)", "value": 18, "unit": "ng·h/mL"},
      {"measurement": "AUC(0-t)", "setting": "[2]; Mild Impairment, mean (SD)", "value": 30, "unit": "ng·h/mL"},
      {"measurement": "AUC(0-t)", "setting": "[2]; [5]", "value": 104, "unit": "ng·h/mL"},
      {"measurement": "Cmax", "setting": "[2]; Healthy Controls, mean (SD)", "value": 1.73, "unit": "ng/mL"},
      {"measurement": "Cmax", "setting": "[2]; Mild Impairment, mean (SD)", "value": 3.98, "unit": "ng/mL"},
      {"measurement": "Cmax", "setting": "[2]; [5]", "value": 9.16, "unit": "ng/mL"},
      {"measurement": "Cmax", "setting": "[2]; [6]", "value": 4.31, "unit": "ng/mL"},
      {"measurement": "Cmax", "setting": "[2]; [7]", "value": 11.4, "unit": "ng/mL"},
      {"measurement": "Cmax", "setting": "[2]; [8]", "value": 19.6, "unit": "ng/mL"},
      {"measurement": "Cmax", "setting": "[2]; [9]", "value": 3.72, "unit": "ng/mL"},
      {"measurement": "Cmax", "setting": "[2]; [10]", "value": 23.6, "unit": "ng/mL"},
      {"measurement": "Cmax", "setting": "[2]; range among subjects, control group", "value": "0.64 to 2.83", "unit": "ng/mL"},
      {"measurement": "Cmax", "setting": "[2]; range among subjects, mild impairment", "value": "0.86 to 11.4", "unit": "ng/mL"},
      {"measurement": "Cmax", "setting": "[2]; range among subjects, moderate-severe impairment", "value": "1.66 to 23.6", "unit": "ng/mL"},
      {"measurement": "AUC", "setting": "[2]; Individual AUC results, range, healthy controls", "value": "6.18 to 33.9", "unit": "ng·h/mL"},
      {"measurement": "AUC", "setting": "[2]; Individual AUC results, range, subjects with mild impairment", "value": "15.3 to 74.8", "unit": "ng·h/mL"},
      {"measurement": "AUC", "setting": "[2]; Individual AUC results, range, subjects with moderate-severe impairment", "value": "24.9 to 250", "unit": "ng·h/mL"},
      {"measurement": "Tmax", "setting": "[2]; Healthy Controls", "value": 3.5, "unit": "h"},
      {"measurement": "Tmax", "setting": "[2]; Mild Impairment", "value": 1.75, "unit": "h"},
      {"measurement": "Tmax", "setting": "[2]; Moderate-Severe Impairment", "value": 1.5, "unit": "h"},
      {"measurement": "half-life", "setting": "[2]; T½, Healthy Controls, mean (SD)", "value": 9.98, "unit": "h"},
      {"measurement": "half-life", "setting": "[2]; T½, Mild Impairment, mean (SD)", "value": 11.8, "unit": "h"},
      {"measurement": "half-life", "setting": "[2]; T½, Moderate-Severe Impairment, mean (SD)", "value": 8.04, "unit": "h"},
      {"measurement": "AUC", "setting": "[2]; mean AUC after excluding Subject 007, mild group", "value": 23.6, "unit": "ng·h/mL"},
      {"measurement": "AUC", "setting": "[2]; median AUC, control group", "value": 23.8, "unit": "ng·h/mL"},
      {"measurement": "AUC", "setting": "[2]; median AUC, mildly-impaired group", "value": 24.7, "unit": "ng·h/mL"},
      {"measurement": "half-life", "setting": "[2]; plasma elimination half-life, Subject 009", "value": 6.96, "unit": "h"},
      {"measurement": "half-life", "setting": "[2]; plasma elimination half-life, Subject 011", "value": 10.7, "unit": "h"},
      {"measurement": "increase in average AUC relative to controls", "setting": "[2]; mild hepatic impairment", "value": "approximately 1.56 fold"},
      {"measurement": "AUC increase relative to healthy controls", "setting": "[2]; mild hepatic impairment", "value": 1.52, "unit": "fold"},
      {"measurement": "elimination rate constant ratio, 90% confidence limits", "setting": "[2]; mild impairment", "value": "0.58-1.31"},
      {"measurement": "elimination rate constant, ratio to healthy controls", "setting": "[2]; mild impairment", "value": 0.87},
      {"measurement": "Cmax increase relative to healthy controls", "setting": "[2]; mild impairment", "value": 1.68, "unit": "fold"},
      {"measurement": "elimination rate constant ratio, 90% confidence limits", "setting": "[2]; moderate-severe impairment", "value": "0.74-1.66"},
      {"measurement": "elimination rate constant, ratio to healthy controls", "setting": "[2]; moderate-severe impairment", "value": 1.11},
      {"measurement": "increase in average AUC relative to controls", "setting": "[2]; moderate-severe impairment", "value": 5.13, "unit": "fold"},
      {"measurement": "Cmax increase relative to healthy controls", "setting": "[2]; moderate-severe impairment", "value": 3.41, "unit": "fold"},
      {"measurement": "AUC increase relative to healthy controls", "setting": "[2]; moderate-to-severe hepatic impairment, hydrochloride", "value": "3.61 fold and 3,6 fold"},
      {"measurement": "AUC increase in individual subjects", "setting": "[2]; two of six subjects with moderate or severe liver disease", "value": "up to 10 fold"},
      {"measurement": "recovery in the first 24 hours, of the amount recovered", "setting": "[3]", "value": 82, "unit": "%"},
      {"measurement": "recovery in the first 24 hours, of the dose", "setting": "[3]", "value": "~42", "unit": "%"},
      {"measurement": "unchanged oxymorphone recovered in the urine", "setting": "[3]", "value": 1.9, "unit": "%"},
      {"measurement": "administered dose recovered in the urine", "setting": "[3]; 120-hour collection interval, 10 healthy subjects, average", "value": 49, "unit": "%"},
      {"measurement": "Conjugated oxymorphone, average of the administered dose", "setting": "[3]; urine", "value": 44.1, "unit": "%"},
      {"measurement": "urinary excretion essentially complete by", "setting": "[4]; after single 20 mg dose", "value": "by the end of the 48 to 72 hour collection interval"},
      {"measurement": "mean amount excreted in the urine", "setting": "[4]; control group", "value": 0.5, "unit": "%"},
      {"measurement": "administered dose excreted unchanged in the urine", "setting": "[4]; discussion statement", "value": "Less than 1%"},
      {"measurement": "mean amount excreted in the urine", "setting": "[4]; mild hepatic impairment", "value": 1.2, "unit": "%"},
      {"measurement": "increase in the amount excreted in the urine", "setting": "[4]; [11]", "value": "approximately 8 fold"},
      {"measurement": "mean amount excreted in the urine", "setting": "[4]; [11]", "value": 4.1, "unit": "%"}
    ]}
  ]
}
